9 compounds from patent US5936097A, “4,9-ethano-benzo(F)isoindole derivatives as farnesyl transferase inhibitors” (Rhone-Poulenc Rorer, S.A., priority 1995, dated 1999) can be followed below.

One test concerns the target T1, human farnesyl transferase (Homo sapiens, UniProt P49354+P49356).
T1 construct: human farnesyl transferase purified from THP1 cell cultures; endogenous in cells; host or cells: THP1 cell cultures (enzyme purified from the cells)
Kind of test: inhibition of farnesyl transferase ((3H) farnesyl transfer from (3H) FPP to p21 H-ras). Type of test: biochemical.
Details: not given
Summed up: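 Radiometric transfer of [3H]farnesyl from 4.5 pmol [3H]FPP to 200 pmol p21 H-ras by ~5 ng human enzyme purified from THP1 cells, in 50 mM Tris-HCl, 5 mM MgCl2, 5 mM DTT, 0.2% octyl glucoside, 20 min at 37 °C. Protein precipitated with SDS/TCA in methanol, filter-bound counts measured; IC50 from 9 concentrations, triplicate.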
Regarding `CCOc1ccccc1CC(=O)N1C[C@H]2[C@@]3(c4ccccc4)CC[C@H](c4ccccc43)[C@@]2(C(=O)O)C1` (relative stereo) [Example 74, (3aRS,4SR,9SR,9aRS)-4,9-ethano-2-(2-ethoxyphenyl)acetyl-9-phenyl-2,3,3a,4,9,9a-hexahydro-1H-benzo[f]isoindole-3a-carboxylic acid], the IC50 (as a rule, the point on the concentration scale where inhibition reaches its midpoint) was found to be 190 nM.

The test is the same for the next values; noted with them: human farnesyl transferase purified from THP1 cell cultures; p21 H-ras substrate; 20 minutes at 37° C.; 9 concentrations; read-out: in vitro inhibitory activity IC50.
`CONC(=O)[C@@]12CN(C(=O)Cc3ccccc3OC)C[C@@H]1[C@]1(c3ccccc3)CC[C@H]2c2ccccc21` (relative stereo) [Example 56, (3aRS,4SR,9SR,9aRS)-N-methoxy-4,9-ethano-2-(2-methoxyphenyl)acetyl-9-phenyl-2,3,3a,4,9,9a-hexahydro-1H-benzo[f]isoindole-3a-carboxamide]: the IC50 was found to be 8400 nM.

With `C=C(C(=O)N1C[C@H]2[C@@]3(c4ccccc4)CC[C@H](c4ccccc43)[C@@]2(C(=O)NCc2ccccn2)C1)c1ccccc1OC` [Example 93, (3aS,4R,9R,9aS)-N-[(2-pyridyl)-methyl]-4,9-ethano-2-[(2-methoxyphenyl)prop-2-en-1-oyl]-9-phenyl-2,3,3a,4,9,9a-hexahydro-1H-benzo[f]isoindole-3a-carboxamide], the IC50 is 450 nM. In the case of `COc1ccccc1CC(=O)N1C[C@H]2[C@@]3(c4ccccc4)CC[C@H](c4ccccc43)[C@@]2(CC(=O)O)C1` (relative stereo) [Example 19, (3aRS, 4SR, 9SR, 9aRS)-4,9-ethano-2-(2-methoxyphenyl)acetyl-9-phenyl-2,3,3a,4,9,9a-hexahydro-1H-benzo[f]isoindol-3a-acetic acid], the IC50 was determined as 5600 nM. As for `C=C(C(=O)N1C[C@H]2[C@@]3(c4ccccc4)CC[C@H](c4ccccc43)[C@@]2(C(=O)NCc2cccnc2)C1)c1ccccc1OC` [Example 91, (3aS,4R,9R,9aS)-N-[(3-pyridyl)methyl]-4,9-ethano-2-[(2-methoxyphenyl)prop-2-en-1-oyl]-9-phenyl-2,3,3a,4,9,9a-hexahydro-1H-benzo[f]isoindole-3a-carboxamide], the IC50 turned out to be 160 nM. Turning to `C=C(C(=O)N1C[C@H]2[C@@]3(c4ccccc4)CC[C@H](c4ccccc43)[C@@]2(C(=O)NCc2ccc(C(F)(F)F)cc2)C1)c1ccccc1OC` [Example 92, (3aS,4R,9R,9aS)-N-[4-trifluorobenzyl]-[4,9-ethano-2-(2-methoxyphenyl)prop-2-en-1-oyl]-9-phenyl-2,3,3a,4,9,9a-hexahydro-1H-benzo[f]isoindole-3a-carboxamide], the IC50 was found to be 4800 nM. For `COc1ccccc1CC(=O)N1C[C@H]2[C@@]3(c4ccccc4)CC[C@H](c4ccccc43)[C@@]2(CCC(=O)O)C1` (relative stereo) [Example 25, 3-[(3aRS, 4SR, 9SR, 9aRS)-4,9-ethano-2-(2-methoxyphenyl)acetyl-9-phenyl-1,2,3,3a,9,9a-hexahydro-1H-benzo[f]isoindol-3a-yl]propionic acid], the IC50 stood at 2600 nM. Take `COc1ccccc1CC(=O)N1C[C@@H]2[C@]3(c4ccccc4)CC[C@@H](c4ccccc43)[C@]2(C(=O)N(C)CC(=O)O)C1` (relative stereo) [Example 49, N-[(3aRS,4SR,9SR,9aRS)-4,9-ethano-2-(2-methoxyphenyl)acetyl-9-phenyl-2,3,3a,4,9,9a-hexahydro-1H-benzo[f]isoindol-3a-yl]carbonyl-N-methylglycine]: the IC50 was 1100 nM. On to `COc1ccccc1CC(=O)N1C[C@H]2[C@@]3(c4ccccc4)CC[C@H](c4ccccc43)[C@@]2(CC(=O)NC(CCSC)C(=O)O)C1` (stereo partly drawn) [Example 21, N-[(3aRS, 4SR, 9SR, 9aRS)-4,9-ethano-2-(2-methoxyphenyl)acetyl-9-phenyl-2,3,3a,4,9,9a-hexahydro-1H-benzo[f]isoindole-3a-yl]acetylmethionine], for which the IC50 was 3750 nM.
